Results taken from patent publication US4539333A, “Prostacyclin, methods of using and method of making” (Burroughs Wellcome Co., priority 1976, dated 1985).

How the values were obtained:
[1] = tested on: human platelet rich plasma (PRP); test: Aggregation of platelets in fresh human platelet rich plasma, Born aggregometer; assay type: cell-based
Protocol: Aggregation of platelets in 1 ml. of fresh human platelet rich plasma (PRP) was monitored in a Born aggregometer. An immediate anti-aggregatory effect of the fresh reaction mixture of Example 1 of aortic microsomes with PGH2 or PGG2 was observed. The lowest anti-aggregatory concentration was obtained with samples containing 0.5-5 ng. Prostacyclin/ml.

[2] = Stability of Prostacyclin and of its anti-aggregatory activity (aqueous medium, storage); assay type: physicochemical
Protocol: Prostacyclin is unstable at room temperature in aqueous medium, having a half-life of approximately 10 mins., but its anti-aggregatory activity can be preserved for several days by dissolving the substance in aqueous alkali or in dry acetone and storing at -20° C. […] Prostacyclin also interrupts and reverses the presence of platelet aggregation.
The anti-aggregatory activity of the extracted Prostacyclin disappeared on bioling (15 seconds) or on standing at 22° C. for 20 minutes. The anti-aggregatory activity of Prostacyclin could be preserved for several days by dissolving the substance in dry acetone and storing at -20° C.

[3] = tested on: blood pressure; test: Blood pressure and heart rate in normotensive anaesthetised rats; assay type: in vivo; settings: injected intravenously and intra-aortically
Protocol: Prostacyclin was injected intravenously and intra-aortically into normotensive anaethetised rats and the blood pressure and heart rate recorded.

[4] = tested on: strips of coronary artery from the ox; test: Relaxation of spirally cut strips of coronary artery; settings: dose dependent effect
Protocol: The effect is dose dependent and relaxation can be seen with doses as low as 20 nanograms per 5 ml bath.

[5] = tested on: isolated hearts from rabbits; test: Isolated hearts perfused at constant flow rate by the Langendorf technique; settings: rabbit hearts
[6] = tested on: strips of coeliac and mesenteric arteries; test: Relaxation of strips of coeliac and mesenteric arteries; parameters: species or system rabbit
[7] = tested on: gastric lesions induced by indomethacin; test: Gastric lesions induced in rats by indomethacin; assay type: in vivo; settings: doses from 62.5 to 250 μg/kg, subcutaneous injection
[8] = tested on: strips of rabbit aorta; test: Contraction of rabbit aorta strips (cascade superfusion bioassay)
Protocol: Aortic microsomal powder (5 mg) was incubated with 1 μg of prostalgandin endoperoxide (PGG2 or PGH2) in 0.05 M Tris buffer (pH 7.5) (1 ml.) for 2 minutes at 22° C. Enzyme activity was estimated by direct bioassay of the incubation mixture. After incubation of 2 minutes at 22° C. all prostaglandin endoperoxide activity was lost indicated by a lack of contraction of rabbit aorta strips when assayed by the cascade superfusion technique of Vane (Br. J. Pharmacy. 23, 369-373, 1964 indicating 100% conversion of PGG2 or PGH2.

[9] = tested on: rabbit aorta, rabbit coeliac artery, rat stomach strip and rat colon; test: Profile of biological activity on isolated tissues
Protocol: 5.xi.-Iodo-9-deoxy-6.xi., 9α-epoxyprostaglandin F1α methyl ester (500 mg) was stirred with methanolic NaOMe prepared from Na (0.23 g., 10 equivs.) and MeOH (3.5 ml.) under N2 at room temperature overnight; 1N aq. NaOH (2.5 ml.) was added to the yellow reaction solution to bring about hydrolysis of the ester moiety and, after 2 hours, the methanol was evaporated in vacuo at room temperature. The residual aqueous solution gave rise spontaneously to a mass of colourless fine needles of the desired sodium salt (formula (I): R=Na) which was cooled (0°), collected, washed sparingly with 1N aq. NaOH, air-dried, and stored in a stoppered tube; this salt (383 mg.) had max (KBr disc) 1692 cm^-1 [drawing 4] and twenty ^13 C resonances only were observed (at 182.7 (C-1), 158.2 (C-6), 140.0 and 134.3 (C-13, 14), 100.7(C-5), 87.5(C-15), 80.6 and 75.5(C-9, 11), 58.0(C-12), 49.0, 45.8, 42.4, 41.9, 37.5, 35.8 (C-18), 31.6., 29.9, 29.3, 26.7(C-19), and 18.4(C-20) ppm from TMS in DMSO-d6). The product, sodium (5Z)- 5,6-didehydro-9-deoxy-6,9α-epoxyprostaglandin F1α (syn. sodium prostacyclin), thus obtained completed inhibited arachidonic acid-induced platelet aggregation (human platelet-rich plasma) at 1 ng./ml. and its profile of biological activity on the rabbit aorta, rabbit coeliac artery, rat stomach strip and rat colon conformed with that of sodium prostacyclin obtained by biosynthesis. […]

| Structure (SMILES) | minimal effective concentration ([1]; Platelet, fresh reaction mixture of aortic microsomes with PGH2 or PGG2, 1 ml human PRP, read-out: lowest anti-aggregatory concentration) | effect on platelet aggregation induced by arachidonic acid and PGG2 ([1]; diethyl ether extracts) | anti-aggregatory potency relative to PGD2 ([1]; times more potent than PGD2, on average) | anti-aggregatory potency relative to PGE1 ([1]; times more potent than PGE1, on average) | anti-aggregatory activity after boiling ([2]; boiling, 15 seconds, extracted Prostacyclin) | time for which anti-aggregatory activity is preserved on storage ([2]; dissolved in dry acetone (b5: or aqueous alkali), stored at -20° C.) | half-life ([2]; room temperature, aqueous medium) | anti-aggregatory activity after standing ([2]; standing at 22° C. for 20 minutes, extracted Prostacyclin) | vasodepressor potency relative to PGE2 [3] | lowest dose at which relaxation can be seen [4] | effect on coronary vessels [5] | effect on strips of coeliac and mesenteric arteries [6] | potency compared with PGE2 on coeliac and mesenteric artery strips [6] | effect on formation of gastric lesions [7] | effect on strips of rabbit aorta [8] | IC100 ([1]; arachidonic acid-induced, human platelet-rich plasma, read-out: concentration giving complete inhibition of arachidonic acid-induced platelet aggregation) | stability in water at acid pH ([2]; water, acid pH) | profile of biological activity compared with sodium prostacyclin obtained by biosynthesis [9] |
| --- | --- | --- | --- | --- | --- | --- | --- | --- | --- | --- | --- | --- | --- | --- | --- | --- | --- | --- |
| CCCCC[C@H](O)/C=C/[C@@H]1[C@H]2C/C(=C/CCCC(=O)O)O[C@H]2C[C@H]1O [Prostacyclin, (5Z)-5,6-didehydro-9-deoxy-6,9α-epoxyprostaglandin F1α] | 0.0005 to 0.005 µg/mL | inhibited | 5-20 times | 10-40 times | disappeared | several days | ~10 min | disappeared | 5 times | 20 nanograms per 5 ml bath | produced coronary vasodilation | relaxed | less potent than PGE2 | inhibit the formation of gastric lesions | does not contract |  |  |  |
| CCCCC[C@H](O)/C=C/[C@@H]1[C@H]2C/C(=C/CCCC(=O)O)O[C@H]2C[C@H]1O [sodium prostacyclin, sodium (5Z)-5,6-didehydro-9-deoxy-6,9α-epoxyprostaglandin F1α] |  |  |  |  |  |  |  |  |  |  |  |  |  |  |  | 0.001 µg/mL | instability | conformed |
